Literature values in patent US6399640B1, “Arylthiazolidinedione and aryloxazolidinedione derivatives” (Merck & Co., Inc., priority 1999, dated 2002).

Experiments:
[1] = tested on: ob/ob mice; settings: Cantello et al, J. Med. Chem. 1994
[2] = tested on: PPARγ; settings: subsequent studies; Willson et al, J. Med. Chem. 1996
[3] = tested on: diabetic mouse model; settings: Sohda et al, Chem. Pharm. Bull. 1982

CN(CCOc1ccc(C2SC(=O)NC2=O)cc1)c1nc2ccccc2o1 (stereo not drawn) [(1)]
antihyperglycemic activity [1]: no antihyperglycemic activity | amounts required for PPARγ activation [2]: relatively high amounts

O=C1NC(=O)C(c2ccc(OCCc3ccccc3)cc2)S1 (stereo not drawn) [(2), 5-[4-(phenylethoxy)phenyl]-2,4-thiazolidinedione]
antihyperglycemic effect [3]: no antihyperglycemic effect
